One experiment concerns the target T1, Kv1.3 potassium channel (Homo sapiens, UniProt P22001).
T1 construct: expressed in transfected cells
Briefly: Kv1.3 potassium channel blocker activity, automated whole-cell patch clamp (Patchliner) in CHO-K1 cells stably expressing Kv1.3. In kind it is cell-based. As to conditions: 30 nM-100 μM. The essentials:
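Whole-cell automated patch clamp in CHO-K1 cells, pH 7.4 external/7.2 internal; 100 ms steps from −90 to +40 mV at 0.1 Hz, 20-pulse trains. Cumulative 30 nM–100 μM on one cell, ≤10 s per concentration; last-pulse current normalized to control, IC50 from Hill fit.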

The target in a further experiment is T2, hERG channel (Homo sapiens, UniProt Q12809).
T2 construct: expressed in transfected cells
T2 sequence (Q12809 whole entry): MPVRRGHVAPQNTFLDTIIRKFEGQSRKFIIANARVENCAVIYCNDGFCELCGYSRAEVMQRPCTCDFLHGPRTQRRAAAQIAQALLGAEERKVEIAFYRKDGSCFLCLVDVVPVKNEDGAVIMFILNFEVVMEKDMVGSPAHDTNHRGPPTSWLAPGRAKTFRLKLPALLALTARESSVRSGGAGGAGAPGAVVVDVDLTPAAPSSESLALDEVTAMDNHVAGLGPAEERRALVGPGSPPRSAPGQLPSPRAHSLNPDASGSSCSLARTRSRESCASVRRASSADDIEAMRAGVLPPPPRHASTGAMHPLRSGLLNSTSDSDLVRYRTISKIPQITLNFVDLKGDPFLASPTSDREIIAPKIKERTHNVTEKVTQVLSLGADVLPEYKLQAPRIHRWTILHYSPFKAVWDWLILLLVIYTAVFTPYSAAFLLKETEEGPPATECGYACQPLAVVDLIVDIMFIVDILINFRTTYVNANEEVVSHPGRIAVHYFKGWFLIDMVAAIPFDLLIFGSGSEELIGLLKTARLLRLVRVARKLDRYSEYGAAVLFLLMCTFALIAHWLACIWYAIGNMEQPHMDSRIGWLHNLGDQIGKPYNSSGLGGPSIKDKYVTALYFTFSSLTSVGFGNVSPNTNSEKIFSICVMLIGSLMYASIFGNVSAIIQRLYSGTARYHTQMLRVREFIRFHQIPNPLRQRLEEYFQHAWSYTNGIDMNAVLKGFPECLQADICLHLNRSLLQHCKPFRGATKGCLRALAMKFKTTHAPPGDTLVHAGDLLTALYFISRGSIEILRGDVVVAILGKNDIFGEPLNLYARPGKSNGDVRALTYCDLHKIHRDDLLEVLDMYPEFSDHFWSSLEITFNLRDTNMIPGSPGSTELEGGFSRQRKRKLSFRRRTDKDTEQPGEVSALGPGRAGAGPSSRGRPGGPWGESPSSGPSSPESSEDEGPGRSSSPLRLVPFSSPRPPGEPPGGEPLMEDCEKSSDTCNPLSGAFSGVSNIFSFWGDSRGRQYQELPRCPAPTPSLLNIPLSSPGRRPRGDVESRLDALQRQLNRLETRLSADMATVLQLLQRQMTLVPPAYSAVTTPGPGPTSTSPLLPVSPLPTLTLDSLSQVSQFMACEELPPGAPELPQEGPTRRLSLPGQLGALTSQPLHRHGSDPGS
Put plainly: hERG electrophysiology, automated whole-cell patch clamp (Patchliner) in CHO-K1 cells stably expressing hERG. The format is cell-based. The conditions noted are these: 30 nM-100 μM. As to the method: This assay is used to evaluate the disclosed compounds' inhibition activities against the hERG channel.
CHO-K1 cells stably expressing hERG were grown in Ham's F-12 Medium with glutamine containing 10% heat-inactivated FBS, 1% penicillin/streptomycin, hygromycin (100 μg/ml) and G418 (100 μg/ml). Cells were grown in culture flasks at 37° C. in a 5% CO2-humidified incubator.
The cells were bathed in an extracellular solution containing 140 mM NaCl, 4 mM KCl, 2 mM CaCl2), 1 mM MgCl2, 5 mM Glucose, 10 mM HEPES; pH adjusted to 7.4 with NaOH; 295-305 mOsm. The internal solution contained 50 mM KCl, 10 mM NaCl, 60 mM KF, 20 mM EGTA, 10 mM HEPES; pH adjusted to 7.2 with KOH; 285 mOsm. All compounds were dissolved in DMSO at 30 mM. Compound stock solutions were freshly diluted with external solution to concentrations of 30 nM, 100 nM, 300 nM, 1 μM, 3 μM, 10 μM, 30 μM and 100 μM. The highest content of DMSO (0.3%) was present in 100 μM.
The voltage protocol (see Table B) was designed to simulate voltage changes during a cardiac action potential with a 300 ms depolarization to +20 mV (analogous to the plateau phase of the cardiac action potential), a repolarization for 300 ms to −50 mV (inducing a tail current) and a final step to the holding potential of −80 mV. The pulse frequency was 0.3 Hz. Control (compound-free) and compound pulse trains for each compound concentration applied contained 70 pulses.
Whole-cell current recordings and compound application were enabled by means of an automated patch clamp platform Patchliner (Nanion). EPC 10 patch clamp amplifier (HEKA) along with Patchmaster software (HEKA Elektronik Dr. Schulze GmbH) was used for data acquisition. Data were sampled at 10 kHz without filtering. Increasing compound concentrations were applied consecutively to the same cell without washouts in between.
AUC and PEAK values were obtained with Patchmaster (HEKA Elektronik Dr. Schulze GmbH). To determine IC50 the last single pulse in the pulse train corresponding to a given compound concentration was used. Obtained AUC and PEAK values in the presence of compound were normalized to control values in the absence of compound. Using Origin (OridinLab), IC50 was derived from data fit to Hill equation: Icompound/Icontrol=(100−A)/(1+([compound]/IC50)nH)+A, where IC50 is the concentration at which current inhibition is half-maximal, [compound] is the applied compound concentration, A is the fraction of current that is not blocked and nH is the Hill coefficient.

Bounds are passed on as bounds.

The values below come from patent US20240391926A1, “SPIROINDOLINONE COMPOUNDS AS Kv1.3 POTASSIUM SHAKER CHANNEL BLOCKERS” (D.E. Shaw Research, LLC, priority 2021, published 2024).

T1 sequence (P22001 whole entry): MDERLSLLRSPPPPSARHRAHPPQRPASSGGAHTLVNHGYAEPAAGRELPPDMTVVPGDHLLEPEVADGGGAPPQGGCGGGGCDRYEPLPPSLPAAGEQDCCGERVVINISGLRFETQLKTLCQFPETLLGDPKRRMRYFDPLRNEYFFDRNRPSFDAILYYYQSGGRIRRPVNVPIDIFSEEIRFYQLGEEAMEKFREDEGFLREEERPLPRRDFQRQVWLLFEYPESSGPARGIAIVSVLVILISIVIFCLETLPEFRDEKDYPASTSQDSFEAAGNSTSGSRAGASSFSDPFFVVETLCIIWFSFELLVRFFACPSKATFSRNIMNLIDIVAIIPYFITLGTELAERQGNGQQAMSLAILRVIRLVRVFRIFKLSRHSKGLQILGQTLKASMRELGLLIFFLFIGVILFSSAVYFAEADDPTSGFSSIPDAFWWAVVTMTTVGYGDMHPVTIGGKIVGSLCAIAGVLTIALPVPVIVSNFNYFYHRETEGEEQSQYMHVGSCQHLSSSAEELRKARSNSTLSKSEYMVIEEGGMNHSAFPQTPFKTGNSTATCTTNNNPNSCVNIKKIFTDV

In the case of `O=C1Nc2cc(Cl)c(Cl)cc2[C@]12CCN(C(=O)[C@H]1CC[C@H](O)CC1)C2` [Compound 52, (S)-5,6-dichloro-1′-((1r,4S)-4-hydroxycyclohexane-1-carbonyl)Spiro[indoline-3,3′-pyrrolidin]-2-one], the IC50 is less than 1000 nM against Kv1.3 potassium channel and more than 30000 nM on hERG channel.
Taken in the same sequence, the figures for `O=C(CO)N1CC[C@]2(C1)C(=O)Nc1c2cc(Cl)c(Cl)c1Cl` [Compound 121, (3S)-5,6,7-trichloro-1′-(2-hydroxyacetyl)-1H-spiro[indole-3,3′-pyrrolidin]-2-one] were less than 300 nM and more than 10000 nM.
Taken in the same sequence, the figures for `O=C([C@@H]1CNC[C@H]1O)N1CC[C@]2(C1)C(=O)Nc1cc(Cl)c(Cl)cc12` (single isomer, unassigned) [Compound 3] were less than 100 nM and more than 100000 nM.
For `NCCC(=O)N1CC[C@]2(C1)C(=O)Nc1cc(Cl)c(Cl)cc12` [Compound 9, (S)-1′-(3-aminopropanoyl)-5,6-dichlorospiro[indoline-3,3′-pyrrolidin]-2-one], in that order: less than 1000 nM and more than 100000 nM.
As for `Cc1[nH]ncc1C(=O)N1CC[C@]2(C1)C(=O)Nc1cc(Cl)c(Cl)cc12` [Compound 71, (S)-5,6-dichloro-1′-(5-methyl-1H-pyrazol-4-carbonyl)spiro[indoline-3,3′-pyrrolidin]-2-one], the IC50 at Kv1.3 potassium channel is less than 1000 nM; against hERG channel, more than 30000 nM.
For `O=C([C@H]1CN[C@@H](CO)C1)N1CC[C@]2(C1)C(=O)Nc1cc(Cl)c(Cl)cc12` [Compound 116, (S)-5,6-dichloro-1′-((3R,5R)-5-(hydroxymethyl)pyrrolidine-3-carbonyl)spiro[indoline-3,3′-pyrrolidin]-2-one], in that order: less than 100 nM and more than 100000 nM.
Taken in the same sequence, the figures for `O=C1Nc2cc(Cl)c(Cl)cc2[C@]12CCN(C(=O)[C@H]1C[C@@](O)(CO)C1)C2` [Compound 94, (3S)-5,6-dichloro-1′-[(1s,3s)-3-hydroxy-3-(hydroxymethyl)cyclobutanecarbonyl]-1H-spiro[indole-3,3′-pyrrolidin]-2-one] were less than 1000 nM and more than 100000 nM.
Consider `O=C([C@@H]1CN[C@H](CO)C1)N1CC[C@]2(C1)C(=O)Nc1cc(Cl)c(Cl)cc12` [Compound 113, (3S)-5,6-dichloro-1-[(3S,53)-5-(hydroxymethyl)pyrrolidine-3-carbonyl]-1H-spiro[indole-3,3-pyrrolidin]-2-one], for which the figures for the IC50 against Kv1.3 potassium channel and on hERG channel were less than 100 nM and more than 100000 nM, respectively.
Taken in the same sequence, the figures for `O=C([C@H]1CC[C@@](O)(CO)C1)N1CC[C@]2(C1)C(=O)Nc1cc(Cl)c(Cl)cc12` (relative stereo) [Compound 97, (S)-5,6-dichloro-1′-((1R,3R)-rel-3-hydroxy-3-(hydroxymethyl)cyclopentane-1-carbonyl)spiro[indoline-3,3′-pyrrolidin]-2-one isomer 1] were less than 1000 nM and more than 100000 nM.
For `O=C1Nc2cc(Cl)c(Cl)cc2[C@]12CCN(C(=O)[C@H]1C[C@](O)(CO)C1)C2` [Compound 93, (3S)-5,6-dichloro-1′-[(1r,3r)-3-hydroxy-3-(hydroxymethyl)cyclobutanecarbonyl]-1H-spiro[indole-3,3′-pyrrolidin]-2-one], in that order: less than 1000 nM and more than 100000 nM.
For `O=C(CO)N1CC[C@]2(C1)C(=O)Nc1cc(Cl)c(Cl)cc12` [Compound 6, (S)-5,6-dichloro-1′-(2-hydroxyacetyl)spiro[indoline-3,3′-pyrrolidin]-2-one], in that order: less than 1000 nM and more than 100000 nM.
As for `COC[C@@H]1C[C@H](C(=O)N2CC[C@]3(C2)C(=O)Nc2cc(Cl)c(Cl)cc23)CN1` [Compound 109, (3S)-5,6-dichloro-1′-[(3S,5S)-5-(methoxymethyl)pyrrolidine-3-carbonyl]-1H-spiro[indole-3,3′-pyrrolidin]-2-one], the IC50 at Kv1.3 potassium channel was less than 1000 nM; at hERG channel, more than 30000 nM.
For `O=C(C1CNC1)N1CC[C@]2(C1)C(=O)Nc1cc(Cl)c(Cl)cc12` [Compound 8, (S)-1′-(azetidine-3-carbonyl)-5,6-dichlorospiro[indoline-3,3′-pyrrolidin]-2-one], in that order: less than 1000 nM and more than 100000 nM.
Taken in the same sequence, the figures for `O=C([C@@H]1CC[C@@H](O)[C@H](O)C1)N1CC[C@]2(C1)C(=O)Nc1cc(Cl)c(Cl)cc12` (single isomer, unassigned; isomer 2) [Compound 104] were less than 300 nM and more than 100000 nM.
Taken in the same sequence, the figures for `O=C([C@H]1C[C@@H](O)[C@@H](O)C1)N1CC[C@]2(C1)C(=O)Nc1cc(Cl)c(Cl)cc12` [Compound 102, (3S)-5,6-dichloro-1′-[(1R,3R,43)-3,4-dihydroxycyclopentanecarbonyl]-1H-spiro[indole-3,3′-pyrrolidin]-2-one] were less than 1000 nM and more than 100000 nM.
With `O=C(C[C@@H]1CCNC1)N1CC[C@]2(C1)C(=O)Nc1cc(Cl)c(Cl)cc12` [Compound 60, (S)-5,6-dichloro-1′-(2-((S)-pyrrolidin-3-yl)acetyl)spiro[indoline-3,3′-pyrrolidin]-2-one], the results for the IC50 against Kv1.3 potassium channel and on hERG channel were less than 300 nM and more than 100000 nM, respectively.
Taken in the same sequence, the figures for `O=C([C@@H]1CN[C@@H](CO)C1)N1CC[C@]2(C1)C(=O)Nc1cc(Cl)c(Cl)cc12` [Compound 115, (S)-5,6-dichloro-1′-((3S,5R)-5-(hydroxymethyl)pyrrolidine-3-carbonyl)spiro[indoline-3,3′-pyrrolidin]-2-one] were less than 100 nM and more than 100000 nM.
Taken in the same sequence, the figures for `C[C@@H]1NCC[C@H]1C(=O)N1CC[C@]2(C1)C(=O)Nc1cc(Cl)c(Cl)cc12` (single isomer, unassigned; isomer 1) [Compound 39] were less than 300 nM and more than 100000 nM.
For `O=C(C1CCN(CCO)C1)N1CC[C@]2(C1)C(=O)Nc1cc(Cl)c(Cl)cc12` (single isomer, unassigned; isomer 1) [Compound 37], in that order: less than 300 nM and more than 100000 nM.
As for `O=C(N1CC[C@]2(C1)C(=O)Nc1cc(Cl)c(Cl)cc12)[C@]1(F)CCCNC1` [Compound 49, (S)-5,6-dichloro-1′-((S)-3-fluoropiperidine-3-carbonyl)spiro[indoline-3,3′-pyrrolidin]-2-one], the IC50 at Kv1.3 potassium channel is less than 300 nM; against hERG channel it was more than 3000 nM.
For `O=C([C@@H]1CCCNC1)N1CC[C@]2(C1)C(=O)Nc1cc(Cl)c(Cl)cc12` [Compound 17, (S)-5,6-dichloro-1′-((R)-piperidine-3-carbonyl)spiro[indoline-3,3′-pyrrolidin]-2-one], in that order: less than 300 nM and more than 100000 nM.
For `O=C(C1C[C@@H](O)[C@H](O)C1)N1CC[C@]2(C1)C(=O)Nc1cc(Cl)c(Cl)cc12` (single isomer, unassigned; isomer 1) [Compound 105], in that order: less than 300 nM and more than 100000 nM.
Turning to `O=C(c1ccnc(CO)c1)N1CC[C@]2(C1)C(=O)Nc1cc(Cl)c(Cl)cc12` [Compound 67, (S)-5,6-dichloro-1′-(2-(hydroxymethyl)isonicotinoyl)spiro[indoline-3,3′-pyrrolidin]-2-one], the IC50 is less than 1000 nM on Kv1.3 potassium channel and more than 100000 nM on hERG channel.
With `O=C(c1cn[nH]c1)N1CC[C@]2(C1)C(=O)Nc1cc(Cl)c(Cl)cc12` [Compound 35, (S)-5,6-dichloro-1′-(1H-pyrazole-4-carbonyl)spiro[indoline-3,3′-pyrrolidin]-2-one], the values for the IC50 against Kv1.3 potassium channel and at hERG channel were less than 1000 nM and more than 100000 nM, respectively.
For `O=C([C@H]1CC[C@](O)(CO)C1)N1CC[C@]2(C1)C(=O)Nc1cc(Cl)c(Cl)cc12` (relative stereo) [Compound 95, (S)-5,6-dichloro-1′-((1R,3S)-rel-3-hydroxy-3-(hydroxymethyl)cyclopentane-1-carbonyl)spiro[indoline-3,3′-pyrrolidin]-2-one isomer 1], in that order: less than 1000 nM and more than 100000 nM.
In the case of `O=C(C1CCNCC1)N1CC[C@]2(C1)C(=O)Nc1cc(Cl)c(Cl)cc12` [Compound 21, (S)-5,6-dichloro-1′-(piperidine-4-carbonyl)spiro[indoline-3,3′-pyrrolidin]-2-one], the IC50 against Kv1.3 potassium channel was less than 1000 nM; against hERG channel it was more than 100000 nM.
